In patent US20150344457A1, “METHODS OF INHIBITING PRMT5” (EPIZYME, INC., priority 2012, published 2015):

What was measured:
[1] = tested on: Z-138 cells; experiment: Z-138 Proliferation Assay (Cell Titer Glo, 5 days); type: cell-based; conditions: Homo sapiens, Table D-2
How it was run: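 Exponentially growing Z-138 cells (10,000 cells/ml) in RPMI 1640 with 10% FBS are exposed to nine-point 3-fold dilutions (final top concentration 20 μM, 0.2% DMSO) for 5 days at 37° C. Viability is measured as ATP by CellTiter-Glo luminescence. The 50% inhibitory concentration comes from a 4-parameter fit.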

[2] = tested on: Z-138 cells; experiment: Z-138 Methylation Assay (In Cell Western for symmetric di-methyl arginine and DNA content); type: cell-based; conditions: Homo sapiens, Table D-2, read-out: ICW EC50
How it was run: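 Symmetric di-methyl arginine signal (800 nm) ratioed to DNA content (700 nm) by In Cell Western after four days of compound treatment of Z-138 suspension cells seeded at 50,000 cells/mL. Percent inhibition set between DMSO and 3 μM reference wells; IC50 curves from triplicates.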

Row | SMILES | EC50 [2] [nM] | EC50 [1] [nM]
1 | O=C(c1ccc(Cn2nccc2-c2ccc(OCC(O)CN3CCc4ccccc4C3)cc2)cc1)N1CCCC1 (stereo not shown) [Compound D31] | 1000 to 10000 | 10000 to 40000
2 | OC(COc1cccc(-c2ccccc2)c1)CN1CCc2ccccc2C1 (stereo not shown) [Compound D43] | 1000 to 10000 | > 20000
3 | Cn1cnc2ccc(-c3cccc(OCC(O)CN4CCc5ccccc5C4)c3)cc21 (stereo not shown) [Compound D45] | 101 to 1000 | 1000 to 10000
4 | CC(Oc1cccc(CNC2CCCC2)c1)C(O)CN1CCc2ccccc2C1 (stereo not shown) [Compound D49] | 101 to 1000 | 1000 to 10000
5 | CN(CC(O)CN1CCc2ccccc2C1)c1cccc(CNC2CCCC2)c1 (stereo not shown) [Compound D53] | 101 to 1000 | 10000 to 40000
6 | OC(COc1cccc(-c2ccc3cn[nH]c3c2)c1)CN1CCc2ccccc2C1 (stereo not shown) [Compound D58] | 1000 to 10000 | 10000 to 40000
7 | OC(COc1cccc(-c2ccc3c(c2)OCO3)c1)CN1CCc2ccccc2C1 (stereo not shown) [Compound D59] | 10000 to 40000 | 10000 to 40000
8 | Cn1cnc2cc(-c3cccc(OCC(O)CN4CCc5ccccc5C4)c3)ccc21 (stereo not shown) [Compound D60] | 101 to 1000 | 10000 to 40000
9 | OC(COc1cccc(-c2cc(C(F)(F)F)ccc2Cl)c1)CN1CCc2ccccc2C1 (stereo not shown) [Compound D62] | 1000 to 10000 | 10000 to 40000
10 | OC(COc1cccc(-c2cccc(F)c2F)c1)CN1CCc2ccccc2C1 (stereo not shown) [Compound D68] | 10000 to 40000 | 10000 to 40000
11 | OCc1cccc(-c2cccc(OCC(O)CN3CCc4ccccc4C3)c2)c1 (stereo not shown) [Compound D72] | 1000 to 10000 | 10000 to 40000
12 | COc1ccc(Cn2cnc3ccc(-c4cccc(OCC(O)CN5CCc6ccccc6C5)c4)cc32)cc1 (stereo not shown) [Compound D82] | 1000 to 10000 | 10000 to 40000
13 | OC(COc1cccc(-c2ccc3nn[nH]c3c2)c1)CN1CCc2ccccc2C1 (stereo not shown) [Compound D84] | 1000 to 10000 | 1000 to 10000
14 | OC(COc1cccc(-c2cccc3c2oc2ccccc23)c1)CN1CCc2ccccc2C1 (stereo not shown) [Compound D86] | 1000 to 10000 | 10000 to 40000
15 | COc1ccc(-c2cccc(OCC(O)CN3CCc4ccccc4C3)c2)c(C)c1 (stereo not shown) [Compound D90] | 1000 to 10000 | 10000 to 40000
16 | OC(COc1cccc(-c2ccc3ncn(C4CNC4)c3c2)c1)CN1CCc2ccccc2C1 (stereo not shown) [Compound D208] | 1000 to 10000 | 1000 to 10000
17 | Cn1cc2ccc(-c3cccc(OCC(O)CN4CCc5ccccc5C4)c3)nc2n1 (stereo not shown) [Compound D210] | 101 to 1000 | 10000 to 40000
18 | OC(COc1cccc(-c2ccc3ncn(C4CCNCC4)c3c2)c1)CN1CCc2ccccc2C1 (stereo not shown) [Compound D220] | 101 to 1000 | 1000 to 10000
19 | Cn1cc2ccc(-c3cc(NCC(O)CN4CCc5ccccc5C4)ncn3)cc2n1 (stereo not shown) [Compound D224] | 101 to 1000 | > 20000
20 | O=C(Cn1ccc2cnc(-c3ccnc(NCC(O)CN4CCc5ccccc5C4)c3)nc21)N1CCOCC1 (stereo not shown) [Compound D234] | < 100 | 101 to 1000
21 | Cn1cc2ccc(-c3ccnc(NCC(O)CN4CCc5ccccc5C4)c3)cc2n1 (stereo not shown) [Compound D236] | 101 to 1000 | 1000 to 10000
22 | Cn1cnc2ccc(-c3ccnc(NCC(O)CN4CCc5ccccc5C4)c3)nc21 (stereo not shown) [Compound D238] | < 100 | 1000 to 10000
23 | Cn1ccc2cnc(-c3ccnc(NCC(O)CN4CCc5ccccc5C4)c3)nc21 (stereo not shown) [Compound D239] | < 100 | 1000 to 10000
24 | OC(CNc1cc(-c2ccc3ncn(C4CCNC4)c3c2)ccn1)CN1CCc2ccccc2C1 (stereo not shown) [Compound D240] | 101 to 1000 | 1000 to 10000
25 | CC(=O)N1CCC(n2ccc3cnc(-c4cccc(OCC(O)CN5CCc6ccccc6C5)c4)nc32)CC1 (stereo not shown) [Compound D243] | 101 to 1000 | 1000 to 10000
26 | CN1CCN(C(=O)Cn2ccc3cnc(-c4cccc(OCC(O)CN5CCc6ccccc6C5)c4)nc32)CC1 (stereo not shown) [Compound D244] | 101 to 1000 | 10000 to 40000
27 | OC(CNc1cc(-c2ccc3ncn(C4CCOCC4)c3c2)ccn1)CN1CCc2ccccc2C1 (stereo not shown) [Compound D251] | 101 to 1000 | 1000 to 10000
28 | CN1CCC(n2cnc3ccc(-c4ccnc(NCC(O)CN5CCc6ccccc6C5)c4)cc32)CC1 (stereo not shown) [Compound D252] | 101 to 1000 | 1000 to 10000

The next lines start with results.

Row | EC50 [2] [nM] | SMILES | EC50 [1] [nM]
29 | > 20000 | COC(COc1cccc(CNC2CCCC2)c1)CN1CCc2ccccc2C1 (stereo not shown) [Compound D32] | > 40000
30 | 1000 to 10000 | OC(CNc1cccc(CNC2CCCC2)c1)CN1CCc2ccccc2C1 (stereo not shown) [Compound D39] | > 20000
31 | 101 to 1000 | OC(COc1ccc(C2CCCNC2)cc1)CN1CCc2ccccc2C1 (stereo not shown) [Compound D47] | 1000 to 10000
32 | 1000 to 10000 | CS(=O)(=O)c1ccc(-c2cccc(OCC(O)CN3CCc4ccccc4C3)c2)cc1 (stereo not shown) [Compound D63] | 10000 to 40000
33 | 101 to 1000 | OC(COc1cccc(-c2cccc3cccnc23)c1)CN1CCc2ccccc2C1 (stereo not shown) [Compound D65] | 10000 to 40000
34 | 1000 to 10000 | CC(=O)c1cccc(-c2cccc(OCC(O)CN3CCc4ccccc4C3)c2)c1 (stereo not shown) [Compound D67] | 10000 to 40000
35 | 1000 to 10000 | COc1cccc(-c2cccc(OCC(O)CN3CCc4ccccc4C3)c2)c1 (stereo not shown) [Compound D74] | 10000 to 40000
36 | 1000 to 10000 | COc1ccc(-c2cccc(OCC(O)CN3CCc4ccccc4C3)c2)cc1 (stereo not shown) [Compound D75] | 10000 to 40000
37 | > 20000 | CC1c2ccccc2CCN1CC(O)COc1cccc(-c2ccc3ncn(C)c3c2)c1 (stereo not shown) [Compound D80] | 1000 to 10000
38 | 101 to 1000 | CC(C)n1cnc2ccc(-c3cccc(OCC(O)CN4CCc5ccccc5C4)c3)cc21 (stereo not shown) [Compound D81] | 10000 to 40000
39 | 1000 to 10000 | OC(COc1cccc(-c2ccc3nc[nH]c3c2)c1)CN1CCc2ccccc2C1 (stereo not shown) [Compound D83] | 10000 to 40000
40 | 1000 to 10000 | OC(COc1cccc(-c2ccc3c(c2)OCCO3)c1)CN1CCc2ccccc2C1 (stereo not shown) [Compound D85] | 10000 to 40000
41 | 1000 to 10000 | COc1ccc(-c2cccc(OCC(O)CN3CCc4ccccc4C3)c2)c(Cl)c1 (stereo not shown) [Compound D88] | 10000 to 40000
42 | 1000 to 10000 | OC(COc1cccc(-c2cnc3ccccc3c2)c1)CN1CCc2ccccc2C1 (stereo not shown) [Compound D89] | 10000 to 40000
43 | 1000 to 10000 | OC(COc1cccc(-c2ccccc2Cl)c1)CN1CCc2ccccc2C1 (stereo not shown) [Compound D92] | 10000 to 40000
44 | 101 to 1000 | OC(COc1cccc(-c2ccc3ncn(C4CCNC4)c3c2)c1)CN1CCc2ccccc2C1 (stereo not shown) [Compound D209] | 1000 to 10000
45 | 1000 to 10000 | Cn1ncc2c1CN(c1cccc(OCC(O)CN3CCc4ccccc4C3)c1)CC2 (stereo not shown) [Compound D216] | > 20000
46 | 1000 to 10000 | Cn1cnc2ccc(-c3cc(NCC(O)CN4CCc5ccccc5C4)ccn3)cc21 (stereo not shown) [Compound D217] | 10000 to 40000
47 | 101 to 1000 | CN1CC(n2cnc3ccc(-c4cccc(OCC(O)CN5CCc6ccccc6C5)c4)cc32)C1 (stereo not shown) [Compound D218] | 1000 to 10000

Row | EC50 [2] [nM] | SMILES | EC50 [1] [nM]
48 | 101 to 1000 | CN1CCC(n2cnc3ccc(-c4cccc(OCC(O)CN5CCc6ccccc6C5)c4)cc32)C1 (stereo not shown) [Compound D219] | 1000 to 10000
49 | 101 to 1000 | CN1CCC(n2cnc3ccc(-c4cccc(OCC(O)CN5CCc6ccccc6C5)c4)cc32)CC1 (stereo not shown) [Compound D221] | 1000 to 10000
50 | 101 to 1000 | O=C(Cn1ccc2cnc(-c3cccc(OCC(O)CN4CCc5ccccc5C4)c3)nc21)N1CCOCC1 (stereo not shown) [Compound D222] | 10000 to 40000
51 | 101 to 1000 | OC(COc1cccc(-c2cccc3[nH]cnc23)c1)CN1CCc2ccccc2C1 (stereo not shown) [Compound D223] | 10000 to 40000
52 | 101 to 1000 | Cn1ncc2ccc(-c3ccnc(NCC(O)CN4CCc5ccccc5C4)c3)cc21 (stereo not shown) [Compound D226] | 1000 to 10000
53 | < 100 | O=C(Cn1ccc2cnc(-c3ccnc(NCC(O)CN4CCc5ccccc5C4)c3)nc21)N1CCCC1 (stereo not shown) [Compound D233] | 1000 to 10000
54 | 101 to 1000 | OC(CNc1cccc(-c2cccc3[nH]cnc23)c1)CN1CCc2ccccc2C1 (stereo not shown) [Compound D235] | 10000 to 40000
55 | 101 to 1000 | Cn1ccc2ccc(-c3cc(NCC(O)CN4CCc5ccccc5C4)ncn3)cc21 (stereo not shown) [Compound D237] | 10000 to 40000
56 | 101 to 1000 | OC(CNc1cc(-c2ccc3ncn(C4CCNCC4)c3c2)ccn1)CN1CCc2ccccc2C1 (stereo not shown) [Compound D241] | 1000 to 10000
57 | 101 to 1000 | CC(=O)N1CCC(n2cnc3ccc(-c4ccnc(NCC(O)CN5CCc6ccccc6C5)c4)cc32)CC1 (stereo not shown) [Compound D242] | 1000 to 10000
58 | 101 to 1000 | CNC(=O)Cn1ccc2cnc(-c3ccnc(NCC(O)CN4CCc5ccccc5C4)c3)nc21 (stereo not shown) [Compound D245] | 1000 to 10000
59 | < 100 | O=C(Cn1ccc2cnc(-c3ccnc(NCC(O)CN4CCc5ccccc5C4)c3)nc21)N1CCCCC1 (stereo not shown) [Compound D246] | 101 to 1000
60 | < 100 | CN1CCN(C(=O)Cn2ccc3cnc(-c4ccnc(NCC(O)CN5CCc6ccccc6C5)c4)nc32)CC1 (stereo not shown) [Compound D247] | 1000 to 10000
61 | 101 to 1000 | Cn1ncc2cnc(-c3cccc(OCC(O)CN4CCc5ccccc5C4)c3)cc21 (stereo not shown) [Compound D248] | 10000 to 40000
62 | 101 to 1000 | O=C(Cn1cnc2ccc(-c3cccc(OCC(O)CN4CCc5ccccc5C4)c3)cc21)N1CCCCC1 (stereo not shown) [Compound D249] | 10000 to 40000
63 | 101 to 1000 | CN1CCC(n2cnc3ccc(-c4ccnc(NCC(O)CN5CCc6ccccc6C5)c4)cc32)C1 (stereo not shown) [Compound D250] | 1000 to 10000
64 | 101 to 1000 | OC(COc1cccc(-c2ncc3ccn(C4CCNCC4)c3n2)c1)CN1CCc2ccccc2C1 (stereo not shown) [Compound D253] | 1000 to 10000
65 | 101 to 1000 | OC(CNc1cc(-c2ncc3ccn(C4CNC4)c3n2)ccn1)CN1CCc2ccccc2C1 (stereo not shown) [Compound D254] | 1000 to 10000
